This note sets out measurements from ChEMBL document CHEMBL1201862, “PubChem BioAssay data set” (2004).

Structures are written as SMILES. Activity calls are given as the source filed them.

In assay [1] the target is T1, Sentrin-specific protease 8 (Homo sapiens, UniProt Q96LD8).
T1 sequence (Q96LD8 whole entry): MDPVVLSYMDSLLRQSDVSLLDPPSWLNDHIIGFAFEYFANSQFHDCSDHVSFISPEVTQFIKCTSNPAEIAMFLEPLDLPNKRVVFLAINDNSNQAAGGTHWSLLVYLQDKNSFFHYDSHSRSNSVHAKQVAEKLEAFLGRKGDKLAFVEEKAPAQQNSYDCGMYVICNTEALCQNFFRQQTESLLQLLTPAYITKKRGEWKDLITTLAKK
The class given is functional.

Assay [2] addresses T1, Sentrin-specific protease 8. Format: functional. This is another data set of the same source.
For assay [3], the target named is Tyrosyl-DNA phosphodiesterase 2 (Homo sapiens, UniProt O95551). Nature of the assay: human TDP2 enzyme inhibitors, dose response, biochemical, epi absorbance, IC50 (AID 743297).
Tyrosyl-DNA phosphodiesterase 2, sequence (O95551 whole entry): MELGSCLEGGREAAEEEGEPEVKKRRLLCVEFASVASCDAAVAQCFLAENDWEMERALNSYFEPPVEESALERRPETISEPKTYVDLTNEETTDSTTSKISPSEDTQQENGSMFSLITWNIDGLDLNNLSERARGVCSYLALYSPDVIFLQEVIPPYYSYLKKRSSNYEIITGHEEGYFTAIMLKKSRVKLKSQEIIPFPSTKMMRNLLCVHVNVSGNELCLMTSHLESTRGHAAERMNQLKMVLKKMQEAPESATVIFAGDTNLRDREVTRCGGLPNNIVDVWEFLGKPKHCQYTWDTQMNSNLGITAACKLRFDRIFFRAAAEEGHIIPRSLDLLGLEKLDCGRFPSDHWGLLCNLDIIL
The target of the next assay is T2, Protein RecA (Mycobacterium tuberculosis, UniProt P9WHJ3).
T2 sequence (P9WHJ3 whole entry): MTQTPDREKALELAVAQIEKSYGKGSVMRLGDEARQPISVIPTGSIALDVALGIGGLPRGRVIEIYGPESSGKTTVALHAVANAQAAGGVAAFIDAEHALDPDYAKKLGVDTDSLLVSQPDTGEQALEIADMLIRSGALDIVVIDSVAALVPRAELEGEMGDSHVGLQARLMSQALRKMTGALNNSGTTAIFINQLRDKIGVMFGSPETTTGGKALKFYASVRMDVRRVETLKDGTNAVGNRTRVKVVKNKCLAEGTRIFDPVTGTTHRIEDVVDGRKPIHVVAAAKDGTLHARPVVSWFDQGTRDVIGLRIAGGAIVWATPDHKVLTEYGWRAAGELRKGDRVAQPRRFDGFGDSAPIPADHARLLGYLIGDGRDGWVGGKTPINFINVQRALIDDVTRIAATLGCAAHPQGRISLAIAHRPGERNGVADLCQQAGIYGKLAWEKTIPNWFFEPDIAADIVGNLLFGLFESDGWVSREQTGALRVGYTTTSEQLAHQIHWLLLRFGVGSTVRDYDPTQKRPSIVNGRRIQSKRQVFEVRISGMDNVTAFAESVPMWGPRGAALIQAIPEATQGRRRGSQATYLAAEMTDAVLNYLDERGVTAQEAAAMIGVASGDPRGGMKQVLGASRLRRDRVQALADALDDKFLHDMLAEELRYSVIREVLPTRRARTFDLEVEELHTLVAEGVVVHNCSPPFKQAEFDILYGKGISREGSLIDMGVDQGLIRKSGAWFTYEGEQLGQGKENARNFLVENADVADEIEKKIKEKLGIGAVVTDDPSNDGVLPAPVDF
Nature of the assay: Fluorescence Cell-Free Homogeneous Dose Retest to Identify Inhibitors of RecA-Intein Splicing Activity. [Related pubchem assays (depositor defined):AID2097, AID2223, AID489010, AID492950]. The class given is functional.

Assay [4] concerns the target T3, Replicative DNA helicase DnaB (Mycobacterium tuberculosis, UniProt P9WMR3).
T3 sequence (P9WMR3 whole entry): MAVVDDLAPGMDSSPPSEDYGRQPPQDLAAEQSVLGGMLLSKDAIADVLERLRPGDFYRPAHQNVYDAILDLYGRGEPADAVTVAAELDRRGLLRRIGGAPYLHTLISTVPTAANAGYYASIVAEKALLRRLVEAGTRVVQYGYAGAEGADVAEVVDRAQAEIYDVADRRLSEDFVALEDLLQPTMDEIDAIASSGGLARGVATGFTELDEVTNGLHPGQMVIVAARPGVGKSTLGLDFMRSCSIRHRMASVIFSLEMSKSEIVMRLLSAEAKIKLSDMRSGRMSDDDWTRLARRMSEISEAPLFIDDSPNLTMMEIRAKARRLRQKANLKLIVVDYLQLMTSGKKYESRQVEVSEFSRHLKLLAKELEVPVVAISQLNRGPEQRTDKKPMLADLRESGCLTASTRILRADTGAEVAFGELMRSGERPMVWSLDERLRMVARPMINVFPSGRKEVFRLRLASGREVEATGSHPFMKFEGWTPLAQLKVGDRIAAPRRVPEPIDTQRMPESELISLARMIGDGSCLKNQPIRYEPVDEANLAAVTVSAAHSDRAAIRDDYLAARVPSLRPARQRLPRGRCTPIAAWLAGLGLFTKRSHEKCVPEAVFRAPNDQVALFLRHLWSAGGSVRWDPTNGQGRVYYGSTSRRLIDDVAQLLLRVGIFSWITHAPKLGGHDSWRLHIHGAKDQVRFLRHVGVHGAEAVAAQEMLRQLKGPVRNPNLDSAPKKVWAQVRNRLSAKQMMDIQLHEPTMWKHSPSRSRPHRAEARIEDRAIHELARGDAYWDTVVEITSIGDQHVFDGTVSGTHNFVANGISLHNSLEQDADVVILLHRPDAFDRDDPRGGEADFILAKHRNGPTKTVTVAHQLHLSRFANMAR
Nature of the assay: DnaB intein splicing inhibitors, dose response, biochemical, cell-free fluorescence (AID 449749). Format: functional.

For a further assay, the target named is Major prion protein (Homo sapiens, UniProt P04156). The class given is functional, cell-based.
Assay [5] in a line: HepG2 cell cytotoxicity, dose response, cytotoxicity control, ATP luminescence, cherry-pick, activator set 2 (AID 1053143). Format: functional, cell-based.
The nature of assay [6]: Counterscreen for activators of the function of SWI/SNF related, matrix associated, actin dependent regulator of chromatin, subfamily a, member 2 (SMARCA2, BRM): Luminescence-based cell-based high throughput dose response assay to identify non-selective compounds using the VP16 reporter assay. The class given is functional. Background: Counterscreens check selectivity or assay interference.

Assay [7] concerns the target T4, Zinc finger protein mex-5 (Caenorhabditis elegans, UniProt Q9XUB2).
T4 sequence (Q9XUB2 whole entry): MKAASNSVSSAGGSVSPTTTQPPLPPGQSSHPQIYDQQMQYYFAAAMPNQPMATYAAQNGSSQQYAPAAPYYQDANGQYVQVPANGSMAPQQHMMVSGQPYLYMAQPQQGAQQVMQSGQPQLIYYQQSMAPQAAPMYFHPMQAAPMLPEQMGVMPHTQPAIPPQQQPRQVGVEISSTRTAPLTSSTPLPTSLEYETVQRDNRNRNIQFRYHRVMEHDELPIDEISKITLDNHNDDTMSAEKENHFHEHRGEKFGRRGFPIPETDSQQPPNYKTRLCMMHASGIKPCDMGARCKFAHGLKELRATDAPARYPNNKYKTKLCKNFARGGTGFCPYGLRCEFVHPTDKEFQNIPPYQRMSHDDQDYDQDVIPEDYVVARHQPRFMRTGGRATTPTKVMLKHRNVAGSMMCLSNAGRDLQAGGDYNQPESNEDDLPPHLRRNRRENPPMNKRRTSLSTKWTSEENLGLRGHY
Put plainly: MEX-5/TCR-2 RNA interaction inhibitors, dose response, biochemical, C. elegans, fluorescence polarization (AID 1960).

In assay [8] the target is T5, RNA-binding protein pos-1 (Caenorhabditis elegans, UniProt G5EF15).
T5 sequence (G5EF15 whole entry): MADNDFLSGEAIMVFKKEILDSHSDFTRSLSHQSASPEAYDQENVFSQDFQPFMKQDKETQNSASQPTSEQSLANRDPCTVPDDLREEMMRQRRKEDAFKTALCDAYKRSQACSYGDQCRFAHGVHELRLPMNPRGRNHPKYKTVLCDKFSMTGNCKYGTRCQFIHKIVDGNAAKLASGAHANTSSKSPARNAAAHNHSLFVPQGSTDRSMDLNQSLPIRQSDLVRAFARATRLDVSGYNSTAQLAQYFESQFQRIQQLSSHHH
Nature of the assay: inhibitors of POS-1/mex-3 RNA binding, dose response, biochemical, fluorescence polarization (AID 1964).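 Note: purified POS-1 fused to maltose binding protein made in E. coli; potency of compounds blocking POS-1 binding to fluorescent RNA.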 In general terms: Polarisation of emitted light reports the rotation of a fluorescent probe.

The target of assay [9] is SWI/SNF-related matrix-associated actin-dependent regulator of chromatin subfamily A member 2 (Homo sapiens, UniProt P51531). Put plainly: Luminescence-based cell-based high throughput dose response assay to identify activators of the function of SWI/SNF related, matrix associated, actin dependent regulator of chromatin, subfamily a, member 2 (SMARCA2, BRM). Format: functional.
SWI/SNF-related matrix-associated actin-dependent regulator of chromatin subfamily A member 2, sequence (P51531 whole entry): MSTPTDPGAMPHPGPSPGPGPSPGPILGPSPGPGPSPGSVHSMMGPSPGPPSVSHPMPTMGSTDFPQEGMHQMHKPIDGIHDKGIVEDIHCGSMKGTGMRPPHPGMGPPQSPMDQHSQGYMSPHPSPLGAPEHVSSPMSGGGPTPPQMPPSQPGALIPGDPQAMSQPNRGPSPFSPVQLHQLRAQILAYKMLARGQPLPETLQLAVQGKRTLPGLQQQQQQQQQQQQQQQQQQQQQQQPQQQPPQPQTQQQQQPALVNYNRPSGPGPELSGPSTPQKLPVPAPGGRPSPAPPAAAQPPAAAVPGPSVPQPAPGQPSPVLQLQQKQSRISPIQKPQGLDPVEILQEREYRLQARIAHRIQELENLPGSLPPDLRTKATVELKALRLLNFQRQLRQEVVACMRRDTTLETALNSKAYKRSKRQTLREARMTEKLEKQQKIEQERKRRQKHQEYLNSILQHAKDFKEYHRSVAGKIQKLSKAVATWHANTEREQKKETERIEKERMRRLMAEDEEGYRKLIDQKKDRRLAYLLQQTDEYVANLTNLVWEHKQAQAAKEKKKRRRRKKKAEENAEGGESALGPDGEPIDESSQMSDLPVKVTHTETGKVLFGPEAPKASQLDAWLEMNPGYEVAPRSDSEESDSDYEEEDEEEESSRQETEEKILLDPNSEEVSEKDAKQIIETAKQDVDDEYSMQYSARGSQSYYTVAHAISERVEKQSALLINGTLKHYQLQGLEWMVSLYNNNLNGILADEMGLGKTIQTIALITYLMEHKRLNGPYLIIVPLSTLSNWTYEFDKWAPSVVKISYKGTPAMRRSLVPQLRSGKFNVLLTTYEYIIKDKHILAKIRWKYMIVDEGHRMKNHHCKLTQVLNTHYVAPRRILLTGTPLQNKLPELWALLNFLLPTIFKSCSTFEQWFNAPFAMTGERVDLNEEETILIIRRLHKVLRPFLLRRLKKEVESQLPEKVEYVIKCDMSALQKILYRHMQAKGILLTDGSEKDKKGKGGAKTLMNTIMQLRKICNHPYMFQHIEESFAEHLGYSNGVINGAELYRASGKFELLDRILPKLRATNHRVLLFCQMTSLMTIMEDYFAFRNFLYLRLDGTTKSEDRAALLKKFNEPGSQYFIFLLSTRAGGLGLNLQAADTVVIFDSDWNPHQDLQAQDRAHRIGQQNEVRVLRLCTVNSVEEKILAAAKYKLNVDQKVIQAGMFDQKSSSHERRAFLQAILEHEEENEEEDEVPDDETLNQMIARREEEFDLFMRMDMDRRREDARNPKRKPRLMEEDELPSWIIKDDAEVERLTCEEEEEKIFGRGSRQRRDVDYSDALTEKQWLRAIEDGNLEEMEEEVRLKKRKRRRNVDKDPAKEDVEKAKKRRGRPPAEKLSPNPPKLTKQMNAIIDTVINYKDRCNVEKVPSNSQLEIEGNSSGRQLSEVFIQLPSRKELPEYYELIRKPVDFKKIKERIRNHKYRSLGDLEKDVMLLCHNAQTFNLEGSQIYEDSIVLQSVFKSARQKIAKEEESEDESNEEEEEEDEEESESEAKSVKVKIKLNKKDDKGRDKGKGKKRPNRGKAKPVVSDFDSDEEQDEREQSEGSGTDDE

In assay [10] the target is T6, Polyadenylate-binding protein 1 (Homo sapiens, UniProt P11940). Put plainly: PABP1 MLLE–PAM2 interaction inhibitors, dose response, miRNA deadenylation inhibitor project, biochemical, fluorescence polarization, Cy5-PAM2 peptide, secondary (AID 602260). Format: functional. Particulars: read-out: IC50_Mean.
T6 sequence (P11940 whole entry): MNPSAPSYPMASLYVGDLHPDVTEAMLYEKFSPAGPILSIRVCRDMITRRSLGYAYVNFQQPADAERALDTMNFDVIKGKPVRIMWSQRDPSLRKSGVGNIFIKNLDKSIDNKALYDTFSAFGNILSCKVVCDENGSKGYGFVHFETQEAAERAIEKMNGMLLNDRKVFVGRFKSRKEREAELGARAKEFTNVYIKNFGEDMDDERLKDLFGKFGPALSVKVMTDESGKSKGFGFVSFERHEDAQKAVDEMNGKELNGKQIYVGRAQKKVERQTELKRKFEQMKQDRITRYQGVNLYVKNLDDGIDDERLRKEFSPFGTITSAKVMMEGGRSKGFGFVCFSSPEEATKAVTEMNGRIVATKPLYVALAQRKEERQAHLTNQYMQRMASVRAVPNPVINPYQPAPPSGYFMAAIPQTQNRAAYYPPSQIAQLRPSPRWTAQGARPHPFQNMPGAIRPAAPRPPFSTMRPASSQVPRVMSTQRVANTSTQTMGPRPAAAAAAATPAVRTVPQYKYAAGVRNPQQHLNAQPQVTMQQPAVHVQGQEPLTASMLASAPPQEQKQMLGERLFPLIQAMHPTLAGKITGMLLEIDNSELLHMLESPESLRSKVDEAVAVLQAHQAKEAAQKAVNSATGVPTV
The target of assay [11] is T6, Polyadenylate-binding protein 1. Nature of the assay: PABP1 MLLE–PAM2 binding inhibitor potency, dose response, biochemical, fluorescence polarization, FITC-PAM2 peptide (AID 602259). The class given is functional. To be noted: read-out: IC50_Mean.
Assay [12] can be described thus: ZM109 Env clade C HIV-1 fusion inhibitors, dose response, HeLa effector, CEM target cells, luciferase, cherry-pick (AID 652058). The class given is functional, cell-based.
Assay [13] can be described thus: inhibitors of clade B AD8 Env fusion, dose response, cell-based, cherry-pick (AID 652062).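 Note: luciferase signal from cell-cell fusion driven by HIV-1 clade B AD8 Env; potency is for inhibitors of fusion seen as a drop in luminescence.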 Format: functional.
Assay [14] is described as follows: inhibitors of HIV Env-driven cell fusion, dose response, cherry-pick (AID 652057). The class given is functional, cell-based.
Assay [15] in a line: off-target signal loss in HeLa-CEM21 co-culture – HeLa F-luc CTL cells, cherry-picked, counter-screen for HIV-1 Env fusion inhibitor project, dose response (AID 652040).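 Note: potency for signal decrease marking cytotoxic or nonspecific inhibition.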 Format: functional, cell-based.
Assay [16] is described as follows: CEM21 lymphoblast cell cytotoxicity, dose response, cytotoxicity control for viral fusion inhibitor project, CellTiter-Glo luminescence, cherry-picked (AID 652042).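 Note: potency for signal decrease meaning cytotoxicity.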 Format: functional, cell-based.
In assay [17] the target is T7, Ubiquitin-conjugating enzyme E2 N (Homo sapiens, UniProt P61088).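 Note: Dose-response confirmation in a TR-FRET assay detecting UBC13-driven polyubiquitin chain formation, inhibition measured.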
T7 sequence (P61088 whole entry): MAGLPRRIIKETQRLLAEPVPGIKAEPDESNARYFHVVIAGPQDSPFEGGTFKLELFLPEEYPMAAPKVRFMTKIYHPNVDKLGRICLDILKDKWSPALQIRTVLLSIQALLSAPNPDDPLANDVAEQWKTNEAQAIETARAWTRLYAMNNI
Format: functional.

A short description of assay [18]: P. falciparum Dd2 growth inhibitors, dose response, SYBR Green, cherry-picked samples (AID 1159567). Format: functional, cell-based.
The nature of assay [19]: HepG2 cell cytotoxicity, dose response, cytotoxicity control, cherry-picked samples (AID 1159577). The class given is functional, cell-based.
The nature of assay [20]: IGROV1 ovarian cancer cell cytotoxicity, dose response, PAX8 inhibitor project, plate reader, dry powder samples (AID 743043). To be noted: IGROV-1. The class given is functional, cell-based.
In the next assay the target is Paired box protein Pax-8 (Homo sapiens, UniProt Q06710). Nature of the assay: inhibitors of PAX8-driven TPO luciferase reporter, dose response, RMG-I cells, cherry-pick (AID 687027).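 Note: luciferase reporter driven by Pax8 target thyroperoxidase promoter measured by SteadyGlo luminescence.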 The class given is functional, cell-based. Background: Reporter assays use an easily measured gene product as a stand-in for the process of interest.
Paired box protein Pax-8, sequence (Q06710 whole entry): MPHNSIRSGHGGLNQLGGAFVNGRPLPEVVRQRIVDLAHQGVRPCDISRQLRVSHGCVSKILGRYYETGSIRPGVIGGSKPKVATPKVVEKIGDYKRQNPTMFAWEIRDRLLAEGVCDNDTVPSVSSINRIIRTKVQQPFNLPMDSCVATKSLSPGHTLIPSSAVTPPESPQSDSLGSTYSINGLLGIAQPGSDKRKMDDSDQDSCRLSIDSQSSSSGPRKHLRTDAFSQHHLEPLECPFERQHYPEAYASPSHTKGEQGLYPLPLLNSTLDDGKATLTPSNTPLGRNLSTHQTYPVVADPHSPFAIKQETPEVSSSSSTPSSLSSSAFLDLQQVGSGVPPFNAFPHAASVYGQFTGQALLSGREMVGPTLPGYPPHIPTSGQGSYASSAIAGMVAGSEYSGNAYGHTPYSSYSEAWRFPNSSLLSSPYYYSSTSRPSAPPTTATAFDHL
The nature of assay [21]: NIH:OVCAR-3 ovarian cancer cell cytotoxicity, dose response, PAX8 inhibitor project, plate reader, dry powder samples (AID 743044). Format: functional, cell-based.
A short description of assay [22]: HEK293T cytotoxicity, dose response, cytotoxicity control for miR-122 modulator project, cell-based, inhibitor set, cherry-pick, set 2 (AID 720697). The class given is functional.
The nature of assay [23]: HEK293T cytotoxicity, dose response, cytotoxicity control for miR-122 modulator project, cell-based, activator set, cherry-pick (AID 720690).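 Note: HEK293T human cells scored for general mammalian cytotoxicity.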 Format: functional.

Turning to `COC(=O)c1ccccc1-c1ccc(C(c2c(C)n[nH]c2O)c2c(C)n[nH]c2O)o1`, the IC50 is 18.6 µM (active) in assay [1], 8.91 µM (active) in assay [2] and 51.2 µM (inactive) in assay [3]. Further, the concentration giving a half-maximal response (EC50) (commonly the midpoint of the concentration-response curve) on Protein RecA is 214 nM (active). Further, in [4], the AC50 (usually the midpoint of the concentration-response curve, whichever way the signal moves) was 279 nM (active).
For the compound `CCOC(=O)C(CC)Sc1cc(C)nc2ccc(OC)cc12` (stereo not given), the IC50 was > 138 µM (inactive) in “cells” and 5.29 µM (active) at Major prion protein.
Turning to `Cc1occc1-c1nnc(SC(C)C(=O)Nc2ccccc2F)o1` (stereo not given), in assay [5], the AC50 is 19.3 µM (active).
As for `CN(C)CCCN1C(=O)c2cccc3c(Br)ccc(c23)C1=O`, the EC50 in [6] is > 91.2 µM (inactive); in assay [7], 16.7 µM (active); in assay [8], 22.1 µM (active); in assay [9], > 10.1 µM (inactive). Also, the figures for the IC50 in assay [10] and in [11] were > 66 µM (inactive) and 29.3 µM (inactive), respectively.
Regarding `COc1cc(CNC(C)c2ccccc2)cc(Cl)c1OCC(=O)Nc1ccccc1` (stereo not given), the AC50 in assay [12] is 2.76 µM (active); in [13] it was 3.78 µM (active); in assay [14] it was 2.13 µM (active); in [15], 4.69 µM (active); in [16] it was 39 µM (active).
For `Cc1ccc(NC(=O)CSc2ncnc3ccccc23)cc1S(=O)(=O)N1CCOCC1`, the IC50 in assay [17] is > 20 µM (inactive); in the assay “cells”, > 138 µM (inactive); at Major prion protein, 8.72 µM (active).
As to `CCCC#Cc1ccc([C@@H]2[C@H](CO)N3CCCCN(S(=O)(=O)Cc4ccccc4)C[C@@H]23)cc1`, the AC50 in [18] is 2.54 µM (active); in [19], 12.4 µM (active); in assay [20], 42.6 µM (active); on Paired box protein Pax-8, 29.2 µM (active); in assay [21] it was 61.3 µM (active).
As to `C[C@@H]1CN([C@@H](C)CO)C(=O)Cc2cc(NC(=O)NC3CCCCC3)ccc2O[C@@H]1CN(C)S(=O)(=O)c1ccc(Cl)cc1`, in assay [16], the AC50 was 61.1 µM (active).
On to `COc1cccc(NC(=O)N[C@H]2CC[C@H](CC(=O)Nc3ccc(-c4ccccc4)cc3)O[C@@H]2CO)c1`, for which the AC50 in [22] was 479 nM (active); in assay [23], 44.3 µM (active).
